Laboratory results taken from patent publication US9394520B2, “Expansion of hematopoietic stem cells” (University of Rochester, priority 2006, dated 2016).
“Also recorded” adds a separate entry of the source.

Tests used:
Jagged1 = Jagged1 mRNA by real time RT-PCR in UMR106 cells; assay type: cell-based; details: UMR106 cells, PGE2 10^−7 M, at 2 hours, corrected for beta-actin
Protocol: UMR 106 cells were serum starved for 24 hours and then treated with a single dose of vehicle (controls) or PGE2 at a concentration of 10^-7 M. RNA was collected from both control and treated samples to assess the fold change in Jagged1 mRNA by real time RT-PCR analysis corrected for by beta-actin. FIG. 1B is a Western blot showing total protein that was collected from both control and treated samples exposed to Jagged1 antibody, C20. Positive control (+ctr) was provided by HS27a cells, a human stromal cell line with high levels of Jagged1 protein, while HS5 cells from a human stromal cell line with minimal Jagged1 levels were used as a negative control. […] UMR106 cells were serum starved for 24 hours. They were pre-treated with H89 for 30 minutes followed by a single dose of PGE2 at 10^-7 M or vehicle. RNA was collected from both control and treated samples to assess the fold change in Jagged1 RNA by real time RT-PCR analysis corrected for by β-actin. […] UMR106 cells were serum starved for 24 hours. […] Total protein was collected from both PGE2 and vehicle treated samples for Western blot analysis with Jagged1 antibody C-20. UMR106 cells were grown in DMEM supplemented with 1.5 g/l sodium bicarbonate, 10% FBS, penicillin (100 U/ml), streptomycin (100 U/ml). After three days of growth the cells were 80% confluent and media was replaced with serum-free media. After 24 hr in serum-free media, PGE2 was added in noted concentrations. UMR 106 cells were treated with the Protein Kinase A (PKA) inhibitors H89 (0.5 hr prior to PGE2 treatment), and myristoylated PKI (0.5 hr prior to PGE2 treatment). […] At the designated times, total RNA and protein were harvested. Total RNA was extracted and analyzed by real time RT-PCR, normalizing for β-actin expression and t=0. Total protein was analyzed by Western blots performed using the […] system (Invitrogen, Carlsbad, Calif.). Blots were probed with Jag1 c-20 antibody (Santa Cruz Biotechnology, Inc., Santa Cruz, Calif.), and the loading control was B-actin.

HES1 = test: Notch target gene HES1 expression by real time RT-PCR; assay type: cell-based; details: UMR 206 cells, PGE2 treatment, starting at 24 hours
Protocol: FIG. 3 is a graph showing that PGE2 treatment in UMR 206 cells increased expression of the Notch target gene HES1 as determined by real time RT-PCR analysis starting at 24 hours.
At the designated times, total RNA and protein were harvested. Total RNA was extracted and analyzed by real time RT-PCR, normalizing for β-actin expression and t=0. Total protein was analyzed by Western blots performed using the XCELL SURELOCK™ system (Invitrogen, Carlsbad, Calif.). Blots were probed with Jag1 c-20 antibody (Santa Cruz Biotechnology, Inc., Santa Cruz, Calif.), and the loading control was B-actin.

bone = test: Bone analysis (microCT, histology) of PGE2-treated mice; assay type: in vivo
Protocol: FIG. 6A is a graph showing quantification of bone volume performed by microCT analysis of femora from mice treated with PGE2 (6 mg/kg i.p. daily for 16 days (n=8)).
Adult C57Bl/6 male mice were treated with PGE2 for 16 days.

ST-HSC = test: Competitive repopulation in lethally irradiated recipients; assay type: in vivo, mice; details: donor CD45.2 to competitor CD45.1 1:2, effect limited to short-term (up to 6 weeks)
Protocol: FIGS. 11A, 11B and 11C are graphs showing engraftment data from peripheral blood from competitive repopulation analysis from CD45.2+c57bl/6 mice treated daily with PGE2 (6 mg/kg i.p. twice daily) (n=8 mice per treatment group, n=10 recipient mice per group, 2 experiments).
This effect was limited to the short-term (up to 6 weeks) (FIGS. 11A, 11B and 11C), illustrating specific ST-HSC expansion. This is a unique in vivo model of selective ST-HSC increase. This effect is best illustrated by the short lived CD11b+myeloid subset (FIGS. 11A, 11B and 11C).

hematopoietic stem cells = test: HSC frequency by flow cytometric analysis of lin-, sca+, kit+ (LSK/KSL) bone marrow cells; assay type: in vivo, mice
Protocol: FIG. 7A is a graph showing KSL frequency at 4 days. FIG. 7B is a graph showing KSL frequency at 8 days. FIG. 7C is a graph showing KSL frequency at 12 days. FIG. 7D is a graph showing KSL frequency at 16 days.
FIG. 9 is a graph showing the percent of HSCs in total bone marrow following in vivo administration of PGE2 in C57bl/6 mice. Eight to ten week old WT C5bl/6 mice given IP injections twice daily for 16 days of either 6 mg/kg PGE2 or vehicle (n=4 for each group). The left hind limb of each mouse was harvested, the bone marrow flushed out and the cells stained with lineage markers, sca-1 and c-kit. DAPI was used for a viability stain. The lin−, sca+, kit+ population was gated using FlowJo software for both PGE2 treated and vehicle treated samples. There was a 66% increase in lin−, sca+, kit+ (LSK) cells in PGE2 vs. vehicle treated mice (p=0.0093). As used herein, LSK and KSL frequency are used interchangeably.
Eight to ten week old FVB/N male mice were injected intraperitoneally once or twice daily for 16 days with either PGE2 (6 mg/kg body weight) or vehicle. Left hind limbs were harvested, fixed, decalcified, and processed. Right hindlimbs were harvested at the same time. The bone marrow was flushed and stained for FACS analysis with scal, ckit, and lineage marker antibodies.
In order to determine if the number of HSCs was increased in vivo by PGE2, eight to ten week old FVB/N mice were given daily IP injections for 16 days of either 6 mg/kg PGE2 or Vehicle. The left hind limb of each mouse was harvested, the bone marrow was flushed out, and the cells were stained with lineage markers, sca-1 and c-kit. DAPI was used for a viability stain. The lin−sca+ckit+population was gated using FlowJo software (FlowJo, Ashland, Oreg.) for both PGE2 treated and VEH treated samples. […] The same procedure was performed on C57bl/g mice.

CCCCC[C@H](O)/C=C/[C@H]1[C@H](O)CC(=O)[C@@H]1C/C=C\CCCC(=O)O [PGE2, Prostaglandin E2]
Jagged1 mRNA increase compared to vehicle (Jagged1): up to 5 fold
expression of the Notch target gene HES1 (HES1): increased
bone anabolic effect in long bones, histologically or by micro-CT imaging (bone; adult C57Bl/6 male mice, 16 days): no evidence of a significant bone anabolic effect
bone volume by microCT analysis (bone; adult FVB/N male mice, 6 mg/kg/day i.p., day 12): no significant increase
cortical width of the tibia (bone; in vivo treatment with PGE2): significantly increased
tibial metaphyseal trabecularization (bone; in vivo treatment with PGE2): increased
multilineage reconstitution by donor cells from treated mice (ST-HSC): superior multilineage reconstitution
increase in lin−, sca+, kit+ (LSK) cells vs. vehicle (hematopoietic stem cells; C57bl/6 mice, 6 mg/kg IP twice daily for 16 days, n=4): 66%
percent of HSCs (KSL) in total bone marrow (hematopoietic stem cells; FVB/N mice, 6 mg/kg IP daily, 4 to 16 days, vs vehicle, 6 mg/kg): trend towards an increase; also recorded: increased significantly
increase of HSC enriched LSK subpopulation (hematopoietic stem cells; adult C57Bl/6 male mice, 16 days, n=8 per group): 3.5 fold
